Source: patent US12209087B2, “AKT1 modulators” (Alterome Therapeutics, Inc., priority 2022, dated 2025)

Molecular target: T1, full length AKT E17K (Homo sapiens, UniProt P31749, E17K)
T1 construct: host or cells: HEK-293 (ATCC CRL-1573)
Assay: NanoBRET Target Engagement (TE) Assay
Assay type: cell-based
Details: competitive tracer displacement in living cells, read-out: AKT1 E17K IC50
Procedure, shortened: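 Compound and tracer incubated 2 h before luminescence at donor 450 nm and acceptor 600 nm, with extracellular signal inhibited. EC50 by sigmoidal variable-slope regression.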

T1 sequence (P31749 whole entry E17K): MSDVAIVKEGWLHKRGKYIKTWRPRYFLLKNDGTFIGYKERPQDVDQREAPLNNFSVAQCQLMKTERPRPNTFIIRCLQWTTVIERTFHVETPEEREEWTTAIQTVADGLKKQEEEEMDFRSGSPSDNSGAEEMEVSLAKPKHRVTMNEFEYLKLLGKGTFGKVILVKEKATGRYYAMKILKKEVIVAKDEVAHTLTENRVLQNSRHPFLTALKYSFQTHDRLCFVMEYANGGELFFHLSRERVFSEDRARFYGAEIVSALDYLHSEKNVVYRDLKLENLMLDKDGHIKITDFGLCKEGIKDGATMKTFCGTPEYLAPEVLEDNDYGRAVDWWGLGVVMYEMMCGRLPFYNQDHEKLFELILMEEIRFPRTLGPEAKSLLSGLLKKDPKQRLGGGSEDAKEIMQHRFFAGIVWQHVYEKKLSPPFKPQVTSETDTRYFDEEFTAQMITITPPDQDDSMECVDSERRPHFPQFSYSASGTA

Q: `N#Cc1nc(C(=O)N2CCN(Cc3ccc(-n4c(-c5cccnc5N)nc5ccc(-c6ccccc6)nc54)cc3)CC2)cs1` [Example 247, 4-(4-(4-(2-(2-Aminopyridin-3-yl)-5-phenyl-3H-imidazo[4,5-b]pyridin-3-yl)benzyl)piperazine-1-carbonyl)thiazole-2-carbonitrile] was tested. Which IC50 did it give?
A: The IC50 was under 15 nM.

Q: How did the IC50 turn out when `N#Cc1ncnc(NC2CC3(CCN(Cc4ccc(-n5c(-c6cccnc6N)nc6ccc(-c7ccccc7)nc65)cc4)CC3)C2)n1` [Example 248, 4-((7-(4-(2-(2-aminopyridin-3-yl)-5-phenyl-3H-imidazo[4,5-b]pyridin-3-yl)benzyl)-7-azaspiro[3.5]nonan-2-yl)amino)-1,3,5-triazine-2-carbonitrile] was run?
A: Its IC50 is under 15 nM.

Q: Which IC50 does the source give for `N#Cc1ncnc(N2CC3(CCN(Cc4ccc(-n5c(-c6cccnc6N)nc6ccc(-c7ccccc7)nc65)cc4)CC3)C2)n1` [Example 249, 4-(7-(4-(2-(2-aminopyridin-3-yl)-5-phenyl-3H-imidazo[4,5-b]pyridin-3-yl)benzyl)-2,7-diazaspiro[3.5]nonan-2-yl)-1,3,5-triazine-2-carbonitrile] here?
A: The IC50 was 15 to 60 nM.

Q: With `N#Cc1ncnc(N2CCCN(Cc3ccc(-n4c(-c5cccnc5N)nc5ccc(-c6ccccc6)nc54)cc3)CC2)n1` [Example 250, 4-(4-(4-(2-(2-Aminopyridin-3-yl)-5-phenyl-3H-imidazo[4,5-b]pyridin-3-yl)benzyl)-1,4-diazepan-1-yl)-1,3,5-triazine-2-carbonitrile] as the molecule, how does the IC50 read?
A: The IC50 was 15 to 60 nM.

Q: With `N#Cc1ncnc(N2CCC3(CCN(Cc4ccc(-n5c(-c6cccnc6N)nc6ccc(-c7ccccc7)nc65)cc4)C3)C2)n1` (stereo not shown) [Example 251, 4-(7-(4-(2-(2-aminopyridin-3-yl)-5-phenyl-3H-imidazo[4,5-b]pyridin-3-yl)benzyl)-2,7-diazaspiro[4.4]nonan-2-yl)-1,3,5-triazine-2-carbonitrile] as the molecule, how does the IC50 read?
A: Its IC50 is under 15 nM.

Q: Which IC50 does the source give for `N#Cc1ncnc(N2CCC3(CCN(Cc4ccc(-n5c(-c6cccnc6N)nc6ccc(-c7ccccc7)nc65)cc4)C3)CC2)n1` [Example 252, 4-(2-(4-(2-(2-Aminopyridin-3-yl)-5-phenyl-3H-imidazo[4,5-b]pyridin-3-yl)benzyl)-2,8-diazaspiro[4.5]decan-8-yl)-1,3,5-triazine-2-carbonitrile] here?
A: Its IC50 is 15 to 60 nM.

Q: With `N#Cc1ncnc(N2CCCC3(CCN(Cc4ccc(-n5c(-c6cccnc6N)nc6ccc(-c7ccccc7)nc65)cc4)C3)C2)n1` (stereo not shown) [Example 253, 4-(2-(4-(2-(2-Aminopyridin-3-yl)-5-phenyl-3H-imidazo[4,5-b]pyridin-3-yl)benzyl)-2,7-diazaspiro[4.5]decan-7-yl)-1,3,5-triazine-2-carbonitrile] as the molecule, how does the IC50 read?
A: The IC50 was 15 to 60 nM.

Q: How did the IC50 turn out when `N#Cc1ncnc(N2CCCC3(CCN(Cc4ccc(-n5c(-c6cccnc6N)nc6ccc(-c7ccccc7)nc65)cc4)CC3)C2)n1` [Example 254, 4-(9-(4-(2-(2-Aminopyridin-3-yl)-5-phenyl-3H-imidazo[4,5-b]pyridin-3-yl)benzyl)-2,9-diazaspiro[5.5]undecan-2-yl)-1,3,5-triazine-2-carbonitrile] was run?
A: Its IC50 is under 15 nM.

Q: `N#Cc1ncnc(N2CC[C@@]3(CCN(Cc4ccc(-n5c(-c6cccnc6N)nc6ccc(-c7ccccc7)nc65)cc4)C3)C2)n1` [Example 255, (R)-4-(7-(4-(2-(2-aminopyridin-3-yl)-5-phenyl-3H-imidazo[4,5-b]pyridin-3-yl)benzyl)-2,7-diazaspiro[4.4]nonan-2-yl)-1,3,5-triazine-2-carbonitrile] was tested. Which IC50 did it give?
A: The IC50 was under 15 nM.

Q: `C[C@@H]1CN(Cc2ccc(-n3c(-c4cccnc4N)nc4ccc(-c5ccccc5)nc43)cc2)C[C@@H](C)N1c1ncnc(C#N)n1` [Example 256, 4-((2R,6R)-4-(4-(2-(2-Aminopyridin-3-yl)-5-phenyl-3H-imidazo[4,5-b]pyridin-3-yl)benzyl)-2,6-dimethylpiperazin-1-yl)-1,3,5-triazine-2-carbonitrile] was tested. Which IC50 did it give?
A: The IC50 was 15 to 60 nM.

Q: Which IC50 does the source give for `N#Cc1ncnc(N2CC3CCC2CN3Cc2ccc(-n3c(-c4cccnc4N)nc4ccc(-c5ccccc5)nc43)cc2)n1` (stereo not shown) [Example 257, 4-(5-(4-(2-(2-Aminopyridin-3-yl)-5-phenyl-3H-imidazo[4,5-b]pyridin-3-yl)benzyl)-2,5-diazabicyclo[2.2.2]octan-2-yl)-1,3,5-triazine-2-carbonitrile] here?
A: The IC50 was 15 to 60 nM.

Q: For `N#Cc1nccc(N2CCN(Cc3ccc(-n4c(-c5cccnc5N)nc5ccc(C6CC6)nc54)cc3)CC2)n1` [Example 258, 4-(4-(4-(2-(2-Aminopyridin-3-yl)-5-cyclopropyl-3H-imidazo[4,5-b]pyridin-3-yl)benzyl)piperazin-1-yl)pyrimidine-2-carbonitrile], which IC50 is on record?
A: Its IC50 is under 15 nM.

Q: With `N#Cc1nccc(N2CCN(Cc3ccc(-n4c(-c5cccnc5N)nc5ccc(-c6ccc[nH]c6=O)nc54)cc3)CC2)n1` [Example 259, 4-(4-(4-(2-(2-Aminopyridin-3-yl)-5-(2-oxo-1,2-dihydropyridin-3-yl)-3H-imidazo[4,5-b]pyridin-3-yl)benzyl)piperazin-1-yl)pyrimidine-2-carbonitrile] as the molecule, how does the IC50 read?
A: Its IC50 is under 15 nM.

Q: How did the IC50 turn out when `Cn1cccc(-c2ccc3nc(-c4cccnc4N)n(-c4ccc(CN5CCN(c6ccnc(C#N)n6)CC5)cc4)c3n2)c1=O` [Example 260, 4-(4-(4-(2-(2-aminopyridin-3-yl)-5-(1-methyl-2-oxo-1,2-dihydropyridin-3-yl)-3H-imidazo[4,5-b]pyridin-3-yl)benzyl)piperazin-1-yl)pyrimidine-2-carbonitrile] was run?
A: The IC50 was 15 to 60 nM.

Q: With `Cn1cccc(-c2ccc3nc(-c4cccnc4N)n(-c4ccc(CN5CCC(Nc6ccnc(C#N)n6)CC5)cc4)c3n2)c1=O` [Example 261, 4-((1-(4-(2-(2-Aminopyridin-3-yl)-5-(1-methyl-2-oxo-1,2-dihydropyridin-3-yl)-3H-imidazo[4,5-b]pyridin-3-yl)benzyl)piperidin-4-yl)amino)pyrimidine-2-carbonitrile] as the molecule, how does the IC50 read?
A: The IC50 was under 15 nM.

Q: How did the IC50 turn out when `N#Cc1nccc(NC2CCN(Cc3ccc(-n4c(-c5cccnc5N)nc5ccc(C6CCC6)nc54)cc3)CC2)n1` [Example 262, 4-((1-(4-(2-(2-aminopyridin-3-yl)-5-cyclobutyl-3H-imidazo[4,5-b]pyridin-3-yl)benzyl)piperidin-4-yl)amino)pyrimidine-2-carbonitrile] was run?
A: The IC50 was under 15 nM.

Q: With `N#Cc1nccc(NC2CCN(Cc3ccc(-n4c(-c5cccnc5N)nc5ccc(C6=CCCCC6)nc54)cc3)CC2)n1` [Example 263, 4-((1-(4-(2-(2-Aminopyridin-3-yl)-5-(cyclohex-1-en-1-yl)-3H-imidazo[4,5-b]pyridin-3-yl)benzyl)piperidin-4-yl)amino)pyrimidine-2-carbonitrile] as the molecule, how does the IC50 read?
A: The IC50 was 15 to 60 nM.

Q: For `N#Cc1nccc(NC2CCN(Cc3ccc(-n4c(-c5cccnc5N)nc5ccc(C6CCCCC6)nc54)cc3)CC2)n1` [Example 264, 4-((1-(4-(2-(2-Aminopyridin-3-yl)-5-cyclohexyl-3H-imidazo[4,5-b]pyridin-3-yl)benzyl)piperidin-4-yl)amino)pyrimidine-2-carbonitrile], which IC50 is on record?
A: Its IC50 is under 15 nM.

Q: For `N#Cc1cccc(-c2ccc3nc(-c4cccnc4N)n(-c4ccc(CN5CCC(Nc6ccnc(C#N)n6)CC5)cc4)c3n2)c1` [Example 265, 4-((1-(4-(2-(2-Aminopyridin-3-yl)-5-(3-cyanophenyl)-3H-imidazo[4,5-b]pyridin-3-yl)benzyl)piperidin-4-yl)amino)pyrimidine-2-carbonitrile], which IC50 is on record?
A: Its IC50 is under 15 nM.
